Source: patent US5792622A, “Assay for chemicals” (priority 1995, dated 1998)
Entries after “also recorded” stand apart in the source; their conditions may differ. Read-outs that look alike come from different tables or passages of the source.

How the values were obtained:
R. meliloti [1] = experiment: microbe, parasite or virus in culture; type: cell-based; details: for absorbance at which the reduction stopped: A550, FIGS. 3 and 5
[2] = cited from earlier work; for Microtox IC50: Table 8
fish (trout fingerlings) = details: Table 8, trout fingerlings; cited from earlier work
Rhodobacter sphaeroides = experiment: Inhibition of tetrazolium dye reduction by Rhodobacter sphaeroides; type: cell-based
Experimental: The other strains of bacteria, mixed in a buffer with various toxic chemicals, which were tested with the tetrazolium dye, gave varying results. Some bacteria reduced the dye, but the reduction was not inhibited appreciably by toxic chemicals. The absorbance of tetrazolium by Rhodobacter sphaeroides was not inhibited by copper. E. coli reduced the dye, but reduction was not inhibited by xylene. […] FIG. 1 is a graph showing data comparing the absorbance of the bacteria R. meliloti and E. coli at A590 varying between 0.0 and 0.3 in reacting with different toxins.

R. meliloti [3] = type: cell-based
R. leguminosarum = type: cell-based
E. coli = type: cell-based
S. typhimurium = type: cell-based
A. crystallopoites = type: cell-based
S. lactis = type: cell-based
B. japonicum = type: cell-based
B. megaterium = type: cell-based
R. sphaeroides = type: cell-based
Ps fluorescens = type: cell-based
[4] = Sinorhizobium meliloti, read-out: IC50 ppm
[5] = Sinorhizobium meliloti, read-out: Rhizobium/Tetrazolium ppm
[6] = Sinorhizobium meliloti, read-out: Rhizobium/Tetrazolium IC50
[7] = ratio of the inhibitory concentrations
[8] = read-out: toxic concentration in mM equivalent to ppm of Table 7
[9] = rhizobium meliloti mtt reduction
[10] = Sinorhizobium meliloti, Table 4, organic compounds, read-out: average (ppm), concentration giving 50% inhibition of dye reduction
[11] = Sinorhizobium meliloti, Table 9, read-out: Rhizobium/Tetrazolium ppm

CC(C)=O [Acetone]
IC50 (R. meliloti [1]; [4]): 71600 µg/mL
IC50 (R. meliloti [1]; [5]): 1640 µg/mL
Microtox ppm ([2]; microtox bioluminescence): 13305-29,109

c1ccccc1 [Benzene]
sensitivity of Rhizobium/Tetrazolium assay compared with Microtox assay (R. meliloti [1]): at least an order of magnitude more sensitive than the Rhizobium/Tetrazolium assay
IC50 (R. meliloti [1]; [6]): 712 µg/mL
IC50 (R. meliloti [1]; [5]): 712 to 2100 µg/mL

[Cd] [Cadmium]
Fish LD50 (50% death of the fish) (fish (trout fingerlings)): 1.0-100 ppm
ppm (50% inhibition of dye reduction) (R. meliloti [1]; Table 7, minerals): 0.838 ppm
Rhizobium/Tetrazolium IC50 (R. meliloti [1]; Table 8): 0.210 ppm
sensitivity of Rhizobium/Tetrazolium assay compared with Microtox assay (R. meliloti [1]; [7]): at least an order of magnitude more sensitive for 4 compounds
Microtox IC50 [2]: 416 ppm

[Ca+2].[Cl-].[Cl-] [Calcium, calcium chloride]
effect on the reaction (R. meliloti [1]; 19 ppm, with 500 μl of 5 mM EDTA (0.758 mM EDTA)): does not affect the reaction
ppm (50% inhibition of dye reduction) (R. meliloti [1]; Table 7, minerals): 5.230 ppm
level at which toxic (R. meliloti [1]; in the absence of a counteracting substance): 6 ppm
IC50 (R. meliloti [1]; [8]): 0.0471 mM

ClC(Cl)Cl [Chloroform]
IC50 (amount per tube) (R. meliloti [1]): 6.10 mg/tube
IC50 volume (R. meliloti [1]): 827 µL
IC50 (R. meliloti [1]; [9]): 4132 ppm
average (ppm), concentration giving 50% inhibition of dye reduction (R. meliloti [1]; [9]): 2032

[Co] [Cobalt]
ppm (50% inhibition of dye reduction) (R. meliloti [1]; Table 7, minerals): 11.200 ppm

[Cu] [Copper]
Fish LD50 (50% death of the fish) (fish (trout fingerlings)): 0.1-10.7 ppm
effect on the reduction of the dye at very low concentrations (R. meliloti [1]; FIG. 10): stimulates the reduction of the dye at very low concentrations
ppm (50% inhibition of dye reduction) (R. meliloti [1]; Table 7, minerals): 0.960 ppm
Rhizobium/Tetrazolium IC50 (R. meliloti [1]; Table 8): 0.240 ppm
sensitivity of Rhizobium/Tetrazolium assay compared with Microtox assay (R. meliloti [1]; [7]): at least an order of magnitude more sensitive for 4 compounds
inhibition of absorbance of tetrazolium (Rhodobacter sphaeroides): not inhibited
Microtox IC50 [2]: 24.96 ppm

O=C1C(Cl)=CC(=Nc2ccc(O)cc2)C=C1Cl [DCIP, 2,6-dichlorophenol-indophenol]
rate of reduction of the dye (R. meliloti [3]): reduced very slowly

C[S+](C)[O-] [DMSO, dimethyl sulfoxide]
IC50 (R. meliloti [1]): 203.3 μl/tube
Microtox ppm ([2]; microtox bioluminescence): 3,506-102,995

O=[N+]([O-])c1ccc(O)c([N+](=O)[O-])c1 [Dinitrophenol, dinitrophenol]
absorbance at which the reduction stopped (R. meliloti [1]): 0.2
IC50 (R. meliloti [1]; [10]): 574 µg/mL

CCO [Ethanol]
IC50 (R. meliloti [1]; [4]): 75600 µg/mL
Microtox ppm ([2]; microtox bioluminescence): 23,090-55,388

O=[N+]([O-])c1ccc(-[n+]2nc(-c3ccccc3)nn2-c2ccc(I)cc2)cc1 [INT, 2-(4-iodophenyl)-3-(4-nitrophenyl)-5-phenyltetrazolium chloride]
absorbance of reduced dye (R. meliloti [3]; Table 1, incubation 2:00 hrs): 0.48
absorbance of reduced dye (R. leguminosarum; Table 1, incubation 7:48 hrs): 0.02
absorbance of reduced dye (E. coli; Table 1, incubation 1:40 hrs): 0.12
absorbance of reduced dye (S. typhimurium; Table 1, incubation 2:00 hrs): 0.06
absorbance of reduced dye (A. crystallopoites; Table 1, incubation 2:00 hrs): 0.14
absorbance of reduced dye (S. lactis; Table 1, incubation 9:57 hrs): 0.08
absorbance of reduced dye (B. japonicum; Table 1, incubation 7:48 hrs): 0.44
absorbance of reduced dye (B. megaterium; Table 1, incubation 2:00 hrs): 0.16
absorbance of reduced dye (R. sphaeroides; Table 1, incubation 11:25 hrs): 0.95
absorbance of reduced dye (Ps fluorescens; Table 1, incubation 1:57 hrs): 0.17

[Pb] [Lead]
inhibitory effect on the reduction of tetrazolium dye (R. meliloti [1]): no inhibitory effect

O=S(=O)([O-])[O-].[Mg+2] [Magnesium, Magnesium sulfate]
ppm (50% inhibition of dye reduction) (R. meliloti [1]; Table 7, minerals): 59.900 ppm
IC50 (R. meliloti [1]; [8]): 0.243 mM

[Mn+2] [Manganese]
ppm (50% inhibition of dye reduction) (R. meliloti [1]; [9]): 0.892

CO [Methanol]
IC50 (R. meliloti [1]; Sinorhizobium meliloti, Table 6, solvents, read-out: IC50 ppm): 76500 µg/mL
IC50 (R. meliloti [1]; [11]): 68400 µg/mL
Microtox ppm ([2]; Table 9): 11,368-320400 ppm

COc1cc(-c2ccc(-n3nc(-c4ccccc4)n[n+]3-c3ccc([N+](=O)[O-])cc3)c(OC)c2)ccc1-n1nc(-c2ccccc2)n[n+]1-c1ccc([N+](=O)[O-])cc1 [NBT, 2,2'-di-nitrophenyl-5,5'-diphenyl-3,3'(-3,3'-dimethoxy-4,4'-diphenylene)ditetrazolium chloride]
absorbance of reduced dye (R. meliloti [3]; Table 1, incubation 2:00 hrs): 0.16
absorbance of reduced dye (R. leguminosarum; Table 1, incubation 7:48 hrs): 0
absorbance of reduced dye (E. coli; Table 1, incubation 1:40 hrs): 0.1
absorbance of reduced dye (S. typhimurium; Table 1, incubation 2:00 hrs): 0.24
absorbance of reduced dye (A. crystallopoites; Table 1, incubation 2:00 hrs): 0.27
absorbance of reduced dye (S. lactis; Table 1, incubation 9:57 hrs): 0.06
absorbance of reduced dye (B. japonicum; Table 1, incubation 7:48 hrs): 0.01
absorbance of reduced dye (B. megaterium; Table 1, incubation 2:00 hrs): 0.19
absorbance of reduced dye (R. sphaeroides; Table 1, incubation 11:25 hrs): 0.16
absorbance of reduced dye (Ps fluorescens; Table 1, incubation 1:57 hrs): 0.04

[Cl-].[Na+] [NaCl, sodium chloride]
IC50 (R. meliloti [1]; FIG. 12, 10% NaCl solution): 60,689 ppm
IC50 volume (R. meliloti [1]; FIG. 12, 10% NaCl solution, 590 nm): 606.89 µL
absorbance reached (R. meliloti [1]; at 1000 μl of 10% NaCl solution, 590 nm): 0.1

[Ni] [Nickel]
Rhizobium/Tetrazolium ppm (R. meliloti [1]; [9]): 49.3
Microtox ppm ([2]; microtox bioluminescence): 34

Oc1c(Cl)c(Cl)c(Cl)c(Cl)c1Cl [Pentachlorophenol, pentachlorophenol]
inhibition compared with trichlorophenol (R. meliloti [1]): an order of magnitude greater
absorbance at which the reduction stopped (R. meliloti [1]): ≤ 0.25
IC50 (R. meliloti [1]; [10]): 0.206 µg/mL
IC50 (R. meliloti [1]; Sinorhizobium meliloti, Table 8, read-out: Rhizobium/Tetrazolium IC50): 0.143 µg/mL
sensitivity of Rhizobium/Tetrazolium assay compared with Microtox assay (R. meliloti [1]; [7]): at least an order of magnitude more sensitive for 4 compounds; also recorded: two orders of magnitude more sensitive
Microtox IC50 [2]: 2.46-2.71 ppm
Microtox ppm ([2]; Table 9): 2.46-2.71 ppm

Oc1ccccc1 [Phenol]
Fish LD50 (50% death of the fish) (fish (trout fingerlings)): 50-100 ppm
sensitivity of Rhizobium/Tetrazolium assay compared with Microtox assay (R. meliloti [1]): at least an order of magnitude more sensitive than the Rhizobium/Tetrazolium assay
IC50 (R. meliloti [1]; [6]): 1220 µg/mL
IC50 (R. meliloti [1]; Sinorhizobium meliloti, read-out: average (ppm), concentration giving 50% inhibition of dye reduction): 1320 µg/mL
Microtox ppm ([2]; microtox bioluminescence): 623

O=c1ccc2[n+]([O-])c3ccc(O)cc3oc-2c1 [Resazurin, resazurin]
usefulness of dye reduction by E. coli (E. coli; protocol used with the tetrazolium dyes): did not yield useful results

[Se] [Selenium]
IC50 (R. meliloti [1]; Sinorhizobium meliloti, Table 7, minerals, read-out: ppm (50% inhibition of dye reduction)): 226 µg/mL

CCCCCCCCCCCCOS(=O)(=O)[O-].[Na+] [Sodium lauryl sulfate]
IC50 (R. meliloti [1]; [10]): 30.4 µg/mL
IC50 (R. meliloti [1]; [11]): 31 µg/mL
sensitivity of Rhizobium/Tetrazolium assay compared with Microtox assay (R. meliloti [1]; [7]): at least an order of magnitude more sensitive than the Rhizobium/Tetrazolium assay

COc1cc(-c2ccc(-n3nc(-c4ccccc4)n[n+]3-c3ccccc3)c(OC)c2)ccc1-n1nc(-c2ccccc2)n[n+]1-c1ccccc1 [TB, 3,3'-[3,3'-dimethoxy(1,1'-biphenyl)-4,4'-diyl]-bis(2,5-diphenyl-2H-tetrazolium)dichloride]
absorbance of reduced dye (R. meliloti [3]; Table 1, incubation 2:00 hrs): 0.12
absorbance of reduced dye (R. leguminosarum; Table 1, incubation 7:48 hrs): 0
absorbance of reduced dye (E. coli; Table 1, incubation 1:40 hrs): 0.04
absorbance of reduced dye (S. typhimurium; Table 1, incubation 2:00 hrs): 0.22
absorbance of reduced dye (A. crystallopoites; Table 1, incubation 2:00 hrs): 0.22
absorbance of reduced dye (S. lactis; Table 1, incubation 9:57 hrs): 0.04
absorbance of reduced dye (B. japonicum; Table 1, incubation 7:48 hrs): 0.02
absorbance of reduced dye (B. megaterium; Table 1, incubation 2:00 hrs): 0.17
absorbance of reduced dye (Ps fluorescens; Table 1, incubation 1:57 hrs): 0.05

c1ccc(-c2nn(-c3ccccc3)[n+](-c3ccccc3)n2)cc1 [TTC, 2,3,5-triphenyltetrazolium chloride]
absorbance of reduced dye (R. meliloti [3]): 0.09
absorbance of reduced dye (R. leguminosarum): 0
absorbance of reduced dye (E. coli): 0.14
absorbance of reduced dye (S. typhimurium): 0.04
absorbance of reduced dye (A. crystallopoites): 0.09
absorbance of reduced dye (S. lactis): 0.05
absorbance of reduced dye (B. japonicum): 0.07
absorbance of reduced dye (B. megaterium): 0.1
absorbance of reduced dye (R. sphaeroides): 0.12
absorbance of reduced dye (Ps fluorescens): 0.01

c1ccc(-c2nn(-c3ccccc3)[n+](-c3cccc4ccccc34)n2)cc1 [TV, 2,5-diphenyl-3-(α-napthyl)tetrazolium chloride]
absorbance of reduced dye (R. meliloti [3]; Table 1, incubation 2:00 hrs): 0.08
rate of reduction of the dye (R. meliloti [3]; in words): reduced more slowly than MTT
absorbance of reduced dye (R. leguminosarum; Table 1, incubation 7:48 hrs): 0
absorbance of reduced dye (E. coli; Table 1, incubation 1:40 hrs): 0.03
absorbance of reduced dye (S. typhimurium; Table 1, incubation 2:00 hrs): 0.04
absorbance of reduced dye (A. crystallopoites; Table 1, incubation 2:00 hrs): 0.08
absorbance of reduced dye (S. lactis; Table 1, incubation 9:57 hrs): 0.04
absorbance of reduced dye (B. japonicum; Table 1, incubation 7:48 hrs): 0.14
absorbance of reduced dye (B. megaterium; Table 1, incubation 2:00 hrs): 0.07
absorbance of reduced dye (R. sphaeroides; Table 1, incubation 11:25 hrs): 0.12
absorbance of reduced dye (Ps fluorescens; Table 1, incubation 1:57 hrs): 0.01

Cc1ccccc1 [Toluene]
Fish LD50 (50% death of the fish) (fish (trout fingerlings)): 23 ppm
IC50 (R. meliloti [1]; [6]): 590 µg/mL
IC50 (R. meliloti [1]; [5]): 30 to 502 µg/mL
sensitivity of Rhizobium/Tetrazolium assay compared with Microtox assay (R. meliloti [1]; [7]): at least an order of magnitude more sensitive than the Rhizobium/Tetrazolium assay
Microtox IC50 [2]: 33,833 ppm
Microtox ppm ([2]; Table 9): 18.0-33,833 ppm

[Zn] [Zinc]
Fish LD50 (50% death of the fish) (fish (trout fingerlings)): 0.24-7.20 ppm
ppm (50% inhibition of dye reduction) (R. meliloti [1]; Table 7, minerals): 4.750 ppm
sensitivity of Rhizobium/Tetrazolium assay compared with Microtox assay (R. meliloti [1]; [7]): at least an order of magnitude more sensitive for 4 compounds
Microtox IC50 [2]: 476 ppm

[Fe] [iron]
inhibitory effect on the reduction of tetrazolium dye (R. meliloti [1]): no inhibitory effect

O=C1NS(=O)(=O)c2ccccc21 [saccharin]
absorbance to which the reduction would eventually go (R. meliloti [1]): 0.0
IC50 (R. meliloti [1]; Sinorhizobium meliloti): 477 µg/mL

ClC(Cl)=C(Cl)Cl [tetrachloroethylene]
IC50 (R. meliloti [1]; [10]): 34.8 µg/mL

ClC=C(Cl)Cl [trichloroethylene]
IC50 (R. meliloti [1]; [10]): 59.5 µg/mL

Mercury
inhibition of tetrazolium reduction (R. meliloti [1]): inhibited tetrazolium reduction completely
ppm (50% inhibition of dye reduction) (R. meliloti [1]; [9]): 0.0179
Microtox ppm ([2]; microtox bioluminescence): 0.06
